Source: patent publication US8653046B2, “Controlling transgene expression across the skin” (ETH Zurich, priority 2009, dated 2014)

Key:
[1] = tested on: macrolide-responsive control system (ET1, E-VP16; PETR3-SAMY-pA); assay: Compatibility test: macrolide-responsive (EOFF) SAMY production in CHO-PEACE8 (pWW35, pBP100); format: cell-based; details: CHO-PEACE8 transiently transfected with macrolide-responsive control system; Phl 50 μM, EM 2 μg/mL; 48 h; 100 = no inducer
Excerpt: (§1) To evaluate the functional compatibility of PEACE with the established tetracycline— [TETOFF; Gossen M., Bujard H., 1992, Proc Natl Acad Sci USA 89(12):5547-5551] and macrolide— [EOFF; Weber W., et al., 2002, Nat Biotechnol 20(9):901-907] responsive expression circuits CHO-PEACE8 is transiently transfected, transgenic for phloretin-responsive SEAP expression, with either the TETOFF-(pSAM200, PSV40-tTA-pA; pBP99, PhCMV*-1-SAMY-pA) or the EOFF-(PWW35, PSV40-ET1-pA; pBP100, PETR3-SAMY-pA) system set to control the Bacillus stearothermophilus-derived secreted α-amylase (SAMY) in response to tetracycline and erythromycin, respectively. SEAP and SAMY expression are scored 48 h after cultivation of the transfected populations in the presence (50 μM; 2 μg/mL) or absence of the inducer molecules (phloretin, tetracycline, erythromycin).

TtgA1 (TtgR-VP16) [2] = target: T1, TtgA1 (TtgR-VP16) (Pseudomonas putida, UniProt Q9AIU0); assay: Compatibility test: phloretin-responsive SEAP production of CHO-PEACE8; format: cell-based, Pseudomonas putida DOT-T1E; set-up: expressed in transfected cells; host or cells: CHO-K1 (transient pMG11 or pMG13); also HEK-293, BHK-21, COS-7, HaCaT, HT-1080, NIH/3T3, primary human fibroblasts and keratinocytes; details: Phl 50 μM, 48 h, 100 = no inducer
T1 sequence (Q9AIU0 whole entry, added parts left off): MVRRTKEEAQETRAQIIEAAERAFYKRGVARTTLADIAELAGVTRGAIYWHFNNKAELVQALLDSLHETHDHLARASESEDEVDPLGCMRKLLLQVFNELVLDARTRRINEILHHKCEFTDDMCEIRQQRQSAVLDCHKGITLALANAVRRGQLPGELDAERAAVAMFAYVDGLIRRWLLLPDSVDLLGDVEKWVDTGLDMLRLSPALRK
Excerpt: as §1
The stable CHO-PEACE8 cell line, transgenic for phloretin-controlled SEAP expression, is constructed in two steps: (i) CHO-K1 cells are co-transfected with pMG11 (PSV40-TtgA1-pA) and pSV2neo (Clontech, Cat. No. 6172-1) at a ratio of 20:1 and clonal selection results in the cell line CHO-TtgA. (ii) CHO-TtgA is co-transfected with pMG10 (PTtgR1-SEAP-pA) and pPur (Clontech, Cat. No. 6156-1) (ratio of 20:1) and the phloretin-responsive SEAP-producing double-transgenic cell line CHO-PEACE8 is chosen after clonal selection. […] Reversibility of phloretin-mediated SEAP production is assessed by cultivating CHO-PEACE8 (100,000 cells/mL) for 144 h while alternating phloretin concentrations from 0 to 50 μM every 48 h.

[3] = target: T2, tetracycline-responsive control system (PSV40-tTA-pA; PhCMV*-1-SAMY-pA) (Escherichia coli, UniProt P04483); assay: Compatibility test: tetracycline-responsive (TETOFF) SAMY production in CHO-PEACE8 (pSAM200, pBP99); format: cell-based; details: CHO-PEACE8 transiently transfected with tetracycline-responsive control system; Phl 50 μM, Tet 2 μg/mL; 48 h; 100 = no inducer
T2 construct: expressed in transfected cells; host or cells: CHO-PEACE8 transiently transfected with pSAM200 and pBP99
T2 sequence (P04483 whole entry, added parts left off): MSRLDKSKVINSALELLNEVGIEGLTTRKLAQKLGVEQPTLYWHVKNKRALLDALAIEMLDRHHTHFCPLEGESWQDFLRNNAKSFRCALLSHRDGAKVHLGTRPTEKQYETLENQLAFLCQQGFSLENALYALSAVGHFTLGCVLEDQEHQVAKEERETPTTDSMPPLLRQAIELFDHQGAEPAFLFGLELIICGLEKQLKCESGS
Excerpt: as §1

CHO-K1 = assay: Toxicity of flavonoids: CHO-K1 transiently transfected with pSEAP2-Control, SEAP levels after 48 h; details: 0, 25, 50 μM, genistein cytotoxic only at 50 μM
Protocol: (A) Toxicity of flavonoids. CHO-K1 are transiently transfected with pSEAP2-Control, and cultivated in medium supplemented with different flavonoids (0, 25, 50 μM). SEAP levels are scored after 48 h.
(§2) CHO-K1 are transiently (co-)transfected with either pMG10 (PTtgR1-SEAP-pA) and pMG11 (PSV40-TtgA1-pA), to score regulation performance, or with pSEAP2-Control (PSV40-SEAP-pA), to assess compound-related cytotoxicity, and then cultivated for 48 h in medium containing different concentrations (0, 25, 50 μM) of specific flavonoid type compounds (berberine, butylparaben, genistein, luteolin, β-naphthol, naringenin, phloretin, phloridzin or quercetin) before SEAP production is profiled (FIG. 5A).
Wild-type Chinese hamster ovary cells (CHO-K1, ATCC: CCL-61) and their derivatives are cultivated in standard medium: ChoMaster® HTS (Cell Culture Technologies, Gravesano, Switzerland) supplemented with 5% (v/v) fetal calf serum (FCS, PAN Biotech GmbH, Aidenbach, Germany, Cat. No. 3302, Lot No. P251110) and 1% (v/v) penicillin/streptomycin solution (Sigma, St Louis, Mo., USA, Cat. No. P4458). Human embryonic kidney cells (HEK-293, Mitta B., et al., 2002, Nucleic Acids Res 30(21):e113), African green monkey kidney cells (COS-7, ATCC: CRL-1651), baby hamster kidney cells (BHK-21, ATCC: CCL10), human fibrosarcoma cells (HT-1080, ATCC: CCL-121), the human keratinocyte cell line HaCaT (Boukamp P., et al., 1988, J Cell Biol 106(3):761-771) and mouse fibroblasts (NIH/3T3, ATCC: CRL-1658) are cultured in Dulbecco's modified Eagle's medium (DMEM; Invitrogen, Cat. No. 52100-39) supplemented with 10% FCS (v/v) and 1% (v/v) penicillin/streptomycin solution. Primary human foreskin fibroblasts are cultivated in DMEM supplemented with 20% FCS (v/v) and 1% (v/v) penicillin/streptomycin solution and primary human foreskin keratinocytes are cultured in chemically defined serum-free keratinocyte medium (Invitrogen, Cat. No. 10744019). All cell types are cultivated at 37° C. in a 5% CO2-containing humidified atmosphere. For transient transfection of CHO-K1, 1 μg of total plasmid DNA (for co-transfection an equal amount of each plasmid) is transfected into 50,000 cells per well of a 24-well plate according to an optimized calcium phosphate protocol (Greber D., Fussenegger M., 2007, Biotechnol Bioeng 96(5):821-834). Plasmid DNA is diluted to a total volume of 25 μL 0.5 M CaCl2 solution, which is mixed with 25 μL 2×HBS solution (50 mM HEPES, 280 mM NaCl, 1.5 mM Na2HPO4, pH 7.1). After incubation for 15 min at room temperature, the precipitates are immediately added to the well and centrifuged onto the cells (5 min at 1,200×g) to increase transfection efficiency. After 3 h, the cells are treated with 0.5 mL glycerol solution (ChoMaster® HTS medium containing 15% glycerol) for 60 sec. After washing once with phosphate-buffered saline (PBS, Dulbecco's Phosphate-Buffered Saline; Invitrogen, Cat. No. 21600-0069), cells are cultivated in 0.5 mL standard ChoMaster® HTS medium in the presence or absence of different concentrations of phloretin. For transfection of BHK-21, COS-7 and HEK-293, plasmid DNA-Ca2PO4 precipitate is prepared and applied to the cells as described above. HEK-293 and COS-7 cells are washed once with PBS after 3 h incubation with the DNA-Ca2PO4 precipitate and subsequently cultivated in standard DMEM, while BHK-21 cells are incubated overnight with the precipitates and then cultivated in DMEM medium after being washed once with PBS. […]

TtgA1 (TtgR-VP16) [4] = target: T1, TtgA1 (TtgR-VP16); assay: PEACE: SEAP expression after transient co-transfection of pMG10 (PTtgR1-SEAP-pA) and pMG11 (PSV40-TtgA1-pA); format: cell-based; details: CHO-K1, 0, 25, 50 μM, 48 h
Excerpt: Living in the plant rhizosphere, Pseudomonas putida DOT-T1E has evolved resistance to a variety of plant-derived antimicrobials, which is triggered by phloretin-induced release of TtgR protein from the operator (OTtgR) of its target promoter and subsequent induction of a broadly specific TtgABC efflux pump (Teran W. et al., loc. cit.).
Three different transactivators are designed, harboring either the VP16 (TtgA1; pMG11, TtgR-VP16) (Triezenberg S. J. et al., loc. cit.), the p65 (TtgA2; pMG18, TtgR-p65) (Urlinger S., et al., 2000, Gene 247(1-2):103-110) or the human E2F4 (TtgA3; pMG19, TtgR-E2F4) (Akagi K., Kanai M., Saya H., Kozu T., Berns A., 2001, Nucleic Acids Res 29(4):e23) transactivation domains. pMG11, pMG18 or pMG19 are co-transfected with pMG10 (PTtgR1-SEAP-pA) into CHO-K1, HEK-293 as well as primary human fibroblasts and keratinocytes, and SEAP expression is profiled after 48 h of cultivation in the presence or absence of 50 μM phloretin.
as §2
Wild-type Chinese hamster ovary cells (CHO-K1, ATCC: CCL-61) and their derivatives are cultivated in standard medium: ChoMaster® HTS (Cell Culture Technologies, Gravesano, Switzerland) supplemented with 5% (v/v) fetal calf serum (FCS, PAN Biotech GmbH, Aidenbach, Germany, Cat. No. 3302, Lot No. P251110) and 1% (v/v) penicillin/streptomycin solution (Sigma, St Louis, Mo., USA, Cat. No. P4458). Human embryonic kidney cells (HEK-293, Mitta B., et al., 2002, Nucleic Acids Res 30(21):e113), African green monkey kidney cells (COS-7, ATCC: CRL-1651), baby hamster kidney cells (BHK-21, ATCC: CCL10), human fibrosarcoma cells (HT-1080, ATCC: CCL-121), the human keratinocyte cell line HaCaT (Boukamp P., et al., 1988, J Cell Biol 106(3):761-771) and mouse fibroblasts (NIH/3T3, ATCC: CRL-1658) are cultured in Dulbecco's modified Eagle's medium (DMEM; Invitrogen, Cat. No. 52100-39) supplemented with 10% FCS (v/v) and 1% (v/v) penicillin/streptomycin solution. Primary human foreskin fibroblasts are cultivated in DMEM supplemented with 20% FCS (v/v) and 1% (v/v) penicillin/streptomycin solution and primary human foreskin keratinocytes are cultured in chemically defined serum-free keratinocyte medium (Invitrogen, Cat. No. 10744019). All cell types are cultivated at 37° C. in a 5% CO2-containing humidified atmosphere.

| Compound | compound-related cytotoxicity / cell viability (CHO-K1) | PEACE regulation performance (SEAP production) (TtgA1 (TtgR-VP16) [4]) | further results |
| --- | --- | --- | --- |
| CC[C@H]1OC(=O)[C@H](C)[C@@H](O[C@H]2C[C@@](C)(OC)[C@@H](O)[C@H](C)O2)[C@H](C)[C@@H](O[C@@H]2O[C@H](C)C[C@H](N(C)C)[C@H]2O)[C@](C)(O)C[C@@H](C)C(=O)[C@H](C)[C@@H](O)[C@]1(C)O [EM, erythromycin] | – | – | Relative SAMY Production (%) [1]: 1.5 ± 1.8%; Relative SEAP Production (%) (TtgA1 (TtgR-VP16) [2]; CHO-PEACE8 transiently transfected with macrolide-responsive control system, EM 2 μg/mL): 102.7 ± 5.3% |
| CN(C)[C@@H]1C(O)=C(C(N)=O)C(=O)[C@@]2(O)C(O)=C3C(=O)c4c(O)cccc4[C@@](C)(O)[C@H]3C[C@@H]12 [Tet, tetracycline] | – | – | Relative SAMY Production (%) [3]: 3.0 ± 0.4%; Relative SEAP Production (%) (TtgA1 (TtgR-VP16) [2]; CHO-PEACE8 transiently transfected with tetracycline-responsive control system, Tet 2 μg/mL): 93.2 ± 3.8% |
| COc1ccc2cc3[n+](cc2c1OC)CCc1cc2c(cc1-3)OCO2 [berberine] | do not reduce cell viability | fails to control PEACE | – |
| CCCCOC(=O)c1ccc(O)cc1 [butylparaben, butyl 4-hydroxybenzoate] | do not reduce cell viability | able to regulate but not fully repress SEAP production | – |
| O=c1c(-c2ccc(O)cc2)coc2cc(O)cc(O)c12 [genistein] | cytotoxic | – | – |
| O=C1C[C@@H](c2ccc(O)cc2)Oc2cc(O)cc(O)c21 [naringenin] | cytotoxic | – | – |
